In US20250059174A1, “Pharmaceutical Compounds and Compositions as C-Kit Kinase Inhibitors” (Enanta Pharmaceuticals, Inc., priority 2023, published 2025):

What was measured:
[1] = target: Recombinant human c-KIT kinase (Homo sapiens (Human), UniProt P10721); experiment: c-KIT kinase chemiluminescence assay (ADP-Glo); type: biochemical; details: ATP 50 μM
Method in brief: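 Recombinant human c-KIT preincubated 30 min at RT in 40 mM Tris pH 7.5, 20 mM MgCl2, 0.1 mg/mL BSA, 50 μM DTT, then reacted 2 h at RT with ATP and polyEY substrate. ADP-Glo luminescence readout; activity normalized to high/low controls, IC50 and Hill coefficient from inhibitor-versus-normalized-response fit.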

[2] = system: M-07e cells; experiment: M-07e cellular assay (SCF-mediated cell proliferation); type: cell-based; details: Homo sapiens, 72 hours, CellTiter Glo
Method in brief: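 Readout came from CellTiter Glo after 72 h of compound treatment in SCF (EC90)-stimulated, pre-starved M-07e cells at 37 °C.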

Chain of Recombinant human c-KIT kinase (P10721 26-976): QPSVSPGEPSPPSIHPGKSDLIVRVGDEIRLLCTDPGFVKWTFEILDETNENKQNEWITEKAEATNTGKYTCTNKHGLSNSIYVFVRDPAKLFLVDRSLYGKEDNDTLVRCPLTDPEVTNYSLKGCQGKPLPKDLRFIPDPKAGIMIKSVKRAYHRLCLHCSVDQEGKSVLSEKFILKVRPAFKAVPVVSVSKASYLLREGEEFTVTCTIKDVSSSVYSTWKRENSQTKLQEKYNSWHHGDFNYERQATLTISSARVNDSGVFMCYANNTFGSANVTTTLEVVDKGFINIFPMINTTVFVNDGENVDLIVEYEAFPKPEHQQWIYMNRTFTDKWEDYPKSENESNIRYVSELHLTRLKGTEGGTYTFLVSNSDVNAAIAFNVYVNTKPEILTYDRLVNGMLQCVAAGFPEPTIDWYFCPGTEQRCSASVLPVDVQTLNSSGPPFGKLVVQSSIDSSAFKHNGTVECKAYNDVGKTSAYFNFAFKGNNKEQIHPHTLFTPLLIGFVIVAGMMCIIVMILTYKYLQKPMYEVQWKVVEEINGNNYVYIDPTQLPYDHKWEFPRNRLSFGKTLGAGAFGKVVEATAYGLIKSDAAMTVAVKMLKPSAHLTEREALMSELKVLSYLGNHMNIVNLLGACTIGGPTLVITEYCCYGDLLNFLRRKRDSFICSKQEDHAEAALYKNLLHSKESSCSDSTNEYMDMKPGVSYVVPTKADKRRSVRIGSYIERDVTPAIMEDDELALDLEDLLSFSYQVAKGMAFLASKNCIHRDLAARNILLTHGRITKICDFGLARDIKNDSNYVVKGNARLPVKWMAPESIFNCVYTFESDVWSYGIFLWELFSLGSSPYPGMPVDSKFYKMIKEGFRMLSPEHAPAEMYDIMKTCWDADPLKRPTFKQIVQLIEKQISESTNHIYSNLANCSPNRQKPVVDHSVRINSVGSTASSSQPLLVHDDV

SMILES | IC50 [1] | EC50 [2]
Cc1ccc(-c2noc([C@H]3C[C@@H]3F)n2)cc1NC(=O)c1cnn2ccc(-c3cnn(CC(C)(C)O)c3)cc12 [Example 142] | < 0.1 µM | < 0.1 µM
Cc1ccc(-c2noc([C@H]3C[C@@H]3F)n2)cc1NC(=O)c1cnn2cc(-c3c(C)nn(CC(C)(C)O)c3C)ccc12 [Example 144] | < 0.1 µM | < 0.1 µM
Cc1ccc(-c2noc([C@H]3C[C@@H]3F)n2)cc1NC(=O)c1cnn2ccc(-c3c(C)nn(C4COC4)c3C)cc12 [Example 145] | < 0.1 µM | < 0.1 µM
COCCn1nc(C)c(-c2ccn3ncc(C(=O)Nc4cc(-c5noc([C@H]6C[C@@H]6F)n5)ccc4C)c3c2)c1C [Example 146] | < 0.1 µM | < 0.1 µM
Cc1ccc(-c2noc([C@H]3C[C@@H]3F)n2)cc1NC(=O)c1cnn2ccc(-c3ccc(F)cc3)cc12 [Example 148] | 0.1 to 1 µM | 0.1 to 1 µM
Cc1ccc(-c2noc([C@H]3C[C@@H]3F)n2)cc1NC(=O)c1cnn2cc(-c3ccc(F)cc3)ccc12 [Example 149] | < 0.1 µM | < 0.1 µM
Cc1ccc(-c2noc([C@H]3C[C@@H]3F)n2)cc1NC(=O)c1cnn2ccc(-c3cccnc3)cc12 [Example 150] | < 0.1 µM | < 0.1 µM
Cc1ccc(-c2noc([C@H]3C[C@@H]3F)n2)cc1NC(=O)c1cnn2cc(-c3cccnc3)ccc12 [Example 151] | < 0.1 µM | < 0.1 µM
Cc1ccc(-c2noc([C@H]3C[C@@H]3F)n2)cc1NC(=O)c1cnn2ccc(-c3c(C)nn(CC(C)(C)O)c3C)cc12 [Example 152] | < 0.1 µM | < 0.1 µM
COCCn1cc(-c2ccn3ncc(C(=O)Nc4cc(-c5noc([C@H]6C[C@@H]6F)n5)ccc4C)c3c2)cn1 [Example 153] | < 0.1 µM | < 0.1 µM
Cc1ccc(-c2noc([C@H]3C[C@@H]3F)n2)cc1NC(=O)c1cnn2ccc(-c3cncnc3)cc12 [Example 154] | < 0.1 µM | < 0.1 µM
Cc1ccc(-c2noc([C@H]3C[C@@H]3F)n2)cc1NC(=O)c1cnn2cc(-c3cncnc3)ccc12 [Example 155] | 0.1 to 1 µM | 0.1 to 1 µM
Cc1ccc(-c2noc([C@H]3C[C@@H]3F)n2)cc1NC(=O)c1cnn2ccc(-c3cnc(N(C)C)nc3)cc12 [Example 156] | < 0.1 µM | < 0.1 µM
Cc1ccc(-c2noc([C@H]3C[C@@H]3F)n2)cc1NC(=O)c1cnn2ccc(-c3cnc(C(F)(F)F)nc3)cc12 [Example 157] | 0.1 to 1 µM | 0.1 to 1 µM
Cc1ccc(-c2noc([C@H]3C[C@@H]3F)n2)cc1NC(=O)c1cnn2ccc(-c3cnc(C(C)(C)O)nc3)cc12 [Example 158] | 0.1 to 1 µM | < 0.1 µM
Cc1ccc(-c2noc([C@H]3C[C@@H]3F)n2)cc1NC(=O)c1cnn2ccc(-c3cnc(NC4CC4)nc3)cc12 [Example 159] | < 0.1 µM | < 0.1 µM
Cc1ccc(-c2noc([C@H]3C[C@@H]3F)n2)cc1NC(=O)c1cnn2ccc(-c3cnc(C4CC4)nc3)cc12 [Example 160] | < 0.1 µM | < 0.1 µM
Cc1ccc(-c2noc([C@H]3C[C@@H]3F)n2)cc1NC(=O)c1cnn2ccc(-c3c(C)n[nH]c3C)cc12 [Example 161] | < 0.1 µM | < 0.1 µM
Cc1ccc(-c2noc([C@H]3C[C@@H]3F)n2)cc1NC(=O)c1cnn2ccc(-c3c(C)nn(CCN4CCOCC4)c3C)cc12 [Example 162] | < 0.1 µM | < 0.1 µM
Cc1ncc(-c2ccn3ncc(C(=O)Nc4cc(-c5noc([C@H]6C[C@@H]6F)n5)ccc4C)c3c2)cn1 [Example 163] | < 0.1 µM | < 0.1 µM
Cc1ccc(-c2noc([C@H]3C[C@@H]3F)n2)cc1NC(=O)c1cnn2cc(F)c(-c3c(C)nn(CC(C)(C)O)c3C)cc12 [Example 164] | 0.1 to 1 µM | 0.1 to 1 µM
Cc1ccc(-c2noc([C@H]3C[C@@H]3F)n2)cc1NC(=O)c1cnn2cc(Cl)c(-c3c(C)nn(CC(C)(C)O)c3C)cc12 [Example 165] | > 1 µM | 0.1 to 1 µM
Cc1ccc(-c2noc([C@H]3C[C@@H]3F)n2)cc1NC(=O)c1cnn2cc(F)c(-c3c(C)nn(C(F)F)c3C)cc12 [Example 166] | > 1 µM | 0.1 to 1 µM

SMILES | IC50 [1] | EC50 [2]
Cc1ccc(-c2noc([C@H]3C[C@@H]3F)n2)cc1NC(=O)c1cnn2ccc(C3CC4(C3)CC(F)(F)C4)cc12 [Example 167-1] | < 0.1 µM | < 0.1 µM
Cc1ccc(-c2noc([C@H]3C[C@@H]3F)n2)cc1NC(=O)c1cnn2cc(Cl)c(-c3c(C)nn(C(F)F)c3C)cc12 [Example 167] | > 1 µM | > 1 µM
Cc1ncc(-c2ccc3c(C(=O)Nc4cc(-c5noc([C@H]6C[C@@H]6F)n5)ccc4C)cnn3c2)c(C)n1 [Example 169] | 0.1 to 1 µM | 0.1 to 1 µM
Cc1nc(C)c(-c2ccn3ncc(C(=O)Nc4cc(-c5noc([C@H]6C[C@@H]6F)n5)ccc4C)c3c2)s1 [Example 170] | < 0.1 µM | < 0.1 µM
Cc1ccc(-c2noc([C@H]3C[C@@H]3F)n2)cc1NC(=O)c1cnn2ccc(-c3nnc(N)nc3C)cc12 [Example 171-1] | < 0.1 µM | < 0.1 µM
Cc1cc(C)c(-c2ccn3ncc(C(=O)Nc4cc(-c5noc([C@H]6C[C@@H]6F)n5)ccc4C)c3c2)c(C)c1 [Example 171-2] | > 1 µM | > 1 µM
Cc1cc(C)c(-c2ccn3ncc(C(=O)Nc4cc(-c5noc([C@H]6C[C@@H](OC(F)(F)F)C6)n5)ccc4C)c3c2)c(C)c1 [Example 171-3] | > 1 µM | > 1 µM
Cc1nc(C)c(-c2ccn3ncc(C(=O)Nc4cc(-c5noc([C@H]6C[C@@H]6F)n5)ccc4C)c3c2)c(C)n1 [Example 171-4] | 0.1 to 1 µM | 0.1 to 1 µM
Cc1nc(C)c(-c2ccn3ncc(C(=O)Nc4cc(-c5noc([C@H]6C[C@@H](OC(F)(F)F)C6)n5)ccc4C)c3c2)c(C)n1 [Example 171-5] | 0.1 to 1 µM | 0.1 to 1 µM
Cc1ccc(-c2noc([C@H]3C[C@@H]3F)n2)cc1NC(=O)c1cnn2ccc(-c3c(C)nc(N)nc3C)cc12 [Example 171-6] | 0.1 to 1 µM | < 0.1 µM
Cc1ccc(-c2noc([C@H]3C[C@@H](OC(F)(F)F)C3)n2)cc1NC(=O)c1cnn2ccc(-c3c(C)nc(N)nc3C)cc12 [Example 171-7] | 0.1 to 1 µM | 0.1 to 1 µM
Cc1ccc(-c2noc([C@H]3C[C@@H]3F)n2)cc1NC(=O)c1cnn2ccc(-c3c(C)nc(Cl)nc3C)cc12 [Example 171-8] | 0.1 to 1 µM | 0.1 to 1 µM
Cc1ccc(-c2noc([C@H]3C[C@@H]3F)n2)cc1NC(=O)c1cnn2ccc(-c3cnccn3)cc12 [Example 171-9] | < 0.1 µM | < 0.1 µM
Cc1ncc(-c2noc([C@H]3C[C@@H]3F)n2)cc1NC(=O)c1cnn2ccc(-c3c(C)nc(N)nc3C)cc12 [Example 171-10] | > 1 µM | > 1 µM
Cc1ccc(-c2noc([C@H]3C[C@@H]3F)n2)cc1NC(=O)c1cnn2ccc(-c3c(C)nc(N4CCC4)nc3C)cc12 [Example 171-12] | 0.1 to 1 µM | 0.1 to 1 µM
Cc1ccc(-c2noc([C@H]3C[C@@H]3F)n2)cc1NC(=O)c1cnn2ccc(-c3c(C)nc(N4CC(F)(F)C4)nc3C)cc12 [Example 171-13] | 0.1 to 1 µM | 0.1 to 1 µM
Cc1ccc(-c2noc([C@H]3C[C@@H]3F)n2)cc1NC(=O)c1cnn2ccc(-c3c(C)nc(N4CC5(COC5)C4)nc3C)cc12 [Example 171-14] | 0.1 to 1 µM | 0.1 to 1 µM
Cc1ccc(-c2ccn3ncc(C(=O)Nc4cc(-c5noc([C@H]6C[C@@H]6F)n5)ccc4C)c3c2)c(C)n1 [Example 171-15] | < 0.1 µM | < 0.1 µM
Cc1ccc(-c2noc([C@H]3C[C@@H]3F)n2)cc1NC(=O)c1cnn2ccc(-c3ccc(C#N)nc3C)cc12 [Example 171-16] | < 0.1 µM | < 0.1 µM
Cc1ccc(-c2noc([C@H]3C[C@@H]3F)n2)cc1NC(=O)c1cnn2ccc(-c3ccc(N4CC(F)(F)C4)nc3C)cc12 [Example 171-17] | < 0.1 µM | < 0.1 µM
Cc1ccc(-c2noc([C@H]3C[C@@H]3F)n2)cc1NC(=O)c1cnn2ccc(-c3ccc(N4CCOCC4)nc3C)cc12 [Example 171-18] | < 0.1 µM | < 0.1 µM
Cc1ccc(-c2noc([C@H]3C[C@@H]3F)n2)cc1NC(=O)c1cnn2ccc(-c3ccc(N4CC5(COC5)C4)nc3C)cc12 [Example 171-19] | < 0.1 µM | < 0.1 µM
COc1ccc(-c2ccn3ncc(C(=O)Nc4cc(-c5noc([C@H]6C[C@@H]6F)n5)ccc4C)c3c2)c(C)n1 [Example 171-20] | < 0.1 µM | < 0.1 µM
